Experimental data taken from ChEMBL document CHEMBL1125402, “Conformational effects on the activity of drugs. 13. A revision of previously proposed models for the activation of alpha- and beta-adrenergic receptors” (J Med Chem, 1992).

Experiments:
[1] = biological target: T1, Adrenergic receptor alpha-1 (Rattus norvegicus) (UniProt P15823+P23944+P43140); assay: Compound was evaluated for alpha adrenoceptor agonistic activity towards alpha 1 receptor of isolated rat vas deferens (exp 1); type: functional, tissue-based
[2] = biological target: T2, Adrenergic receptor alpha-1 (Rattus norvegicus, UniProt P15823+P23944+P43140); assay: Binding affinity towards Alpha-1 adrenergic receptor of rat brain
T2 sequence (P15823 whole entry): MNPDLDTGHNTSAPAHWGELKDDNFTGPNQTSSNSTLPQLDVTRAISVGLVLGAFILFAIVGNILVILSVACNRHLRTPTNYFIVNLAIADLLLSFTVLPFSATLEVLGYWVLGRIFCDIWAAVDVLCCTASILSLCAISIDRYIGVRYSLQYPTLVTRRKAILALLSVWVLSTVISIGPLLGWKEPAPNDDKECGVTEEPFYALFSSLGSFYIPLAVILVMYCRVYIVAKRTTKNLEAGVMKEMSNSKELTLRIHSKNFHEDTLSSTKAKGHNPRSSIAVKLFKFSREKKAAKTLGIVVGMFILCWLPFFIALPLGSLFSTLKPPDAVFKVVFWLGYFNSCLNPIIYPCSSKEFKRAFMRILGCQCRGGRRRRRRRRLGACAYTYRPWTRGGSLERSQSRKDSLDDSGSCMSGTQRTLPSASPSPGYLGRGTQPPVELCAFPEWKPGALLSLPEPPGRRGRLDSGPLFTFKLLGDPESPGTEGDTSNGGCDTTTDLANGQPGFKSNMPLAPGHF
T2 sequence (P23944 whole entry): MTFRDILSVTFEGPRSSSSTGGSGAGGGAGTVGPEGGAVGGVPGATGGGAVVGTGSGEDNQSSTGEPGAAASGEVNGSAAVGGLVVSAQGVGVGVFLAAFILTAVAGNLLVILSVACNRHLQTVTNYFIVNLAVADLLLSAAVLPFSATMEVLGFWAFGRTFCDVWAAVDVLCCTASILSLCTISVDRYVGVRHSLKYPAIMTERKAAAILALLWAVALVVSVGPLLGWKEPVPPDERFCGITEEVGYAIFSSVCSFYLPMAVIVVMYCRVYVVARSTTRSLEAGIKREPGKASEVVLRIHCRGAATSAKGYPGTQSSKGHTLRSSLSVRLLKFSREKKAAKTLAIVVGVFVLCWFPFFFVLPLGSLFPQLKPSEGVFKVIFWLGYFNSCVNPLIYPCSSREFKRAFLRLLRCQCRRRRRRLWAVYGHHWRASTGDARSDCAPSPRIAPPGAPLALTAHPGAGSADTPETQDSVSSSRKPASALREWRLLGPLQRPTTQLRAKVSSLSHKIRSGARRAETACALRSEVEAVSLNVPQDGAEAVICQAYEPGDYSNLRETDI
T2 sequence (P43140 whole entry): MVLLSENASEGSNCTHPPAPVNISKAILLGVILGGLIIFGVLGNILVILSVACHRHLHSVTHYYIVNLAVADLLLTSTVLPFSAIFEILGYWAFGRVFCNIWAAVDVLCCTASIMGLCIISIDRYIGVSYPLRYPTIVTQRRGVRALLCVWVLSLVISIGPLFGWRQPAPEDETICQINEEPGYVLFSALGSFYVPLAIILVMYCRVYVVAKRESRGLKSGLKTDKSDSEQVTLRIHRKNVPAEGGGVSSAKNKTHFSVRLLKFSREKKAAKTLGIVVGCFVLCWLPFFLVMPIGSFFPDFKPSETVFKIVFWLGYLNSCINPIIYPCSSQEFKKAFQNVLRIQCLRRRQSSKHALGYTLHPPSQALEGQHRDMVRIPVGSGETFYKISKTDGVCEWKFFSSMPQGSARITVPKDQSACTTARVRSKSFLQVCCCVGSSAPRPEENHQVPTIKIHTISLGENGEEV

[3] = biological target: T1, Adrenergic receptor alpha-1 (Rattus norvegicus); assay: Compound was evaluated for alpha adrenoceptor agonistic activity towards Alpha-1 adrenergic receptor of isolated rat vas deferens (exp 2); type: functional, tissue-based
[4] = biological target: T3, Beta-2 adrenergic receptor (Bos taurus, UniProt Q28044); assay: Compound was evaluated for beta adrenergic binding affinity towards beta-2 receptor of bovine lung
T3 sequence (Q28044 whole entry): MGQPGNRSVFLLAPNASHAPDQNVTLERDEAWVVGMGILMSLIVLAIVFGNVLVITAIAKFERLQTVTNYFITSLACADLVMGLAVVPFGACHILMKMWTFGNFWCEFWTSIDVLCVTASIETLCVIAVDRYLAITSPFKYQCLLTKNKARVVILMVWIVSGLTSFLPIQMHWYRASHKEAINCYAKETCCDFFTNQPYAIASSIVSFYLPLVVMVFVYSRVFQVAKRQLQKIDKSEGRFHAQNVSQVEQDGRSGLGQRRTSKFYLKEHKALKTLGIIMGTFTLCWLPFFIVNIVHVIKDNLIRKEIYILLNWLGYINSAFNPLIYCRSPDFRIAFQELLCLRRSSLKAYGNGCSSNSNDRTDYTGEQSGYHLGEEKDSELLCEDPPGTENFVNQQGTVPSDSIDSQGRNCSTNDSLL

[5] = biological target: T4, Adrenergic receptor alpha-2 (Rattus norvegicus, UniProt P22086+P19328+P22909); assay: Compound was evaluated for alpha adrenergic binding affinity towards Alpha-2 adrenergic receptor of rat brain
T4 sequence (P22086 whole entry): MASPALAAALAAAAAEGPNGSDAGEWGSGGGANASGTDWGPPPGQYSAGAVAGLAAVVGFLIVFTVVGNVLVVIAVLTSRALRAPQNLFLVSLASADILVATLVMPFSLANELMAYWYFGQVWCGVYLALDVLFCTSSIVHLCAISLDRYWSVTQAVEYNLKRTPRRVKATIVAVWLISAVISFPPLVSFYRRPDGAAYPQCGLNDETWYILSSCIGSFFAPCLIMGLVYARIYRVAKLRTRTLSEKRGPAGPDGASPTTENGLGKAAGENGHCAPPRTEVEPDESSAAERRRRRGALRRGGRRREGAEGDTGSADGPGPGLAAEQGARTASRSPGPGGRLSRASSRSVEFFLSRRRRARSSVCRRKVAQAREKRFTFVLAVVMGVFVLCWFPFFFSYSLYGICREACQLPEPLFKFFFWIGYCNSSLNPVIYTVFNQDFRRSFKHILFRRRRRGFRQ
T4 sequence (P19328 whole entry): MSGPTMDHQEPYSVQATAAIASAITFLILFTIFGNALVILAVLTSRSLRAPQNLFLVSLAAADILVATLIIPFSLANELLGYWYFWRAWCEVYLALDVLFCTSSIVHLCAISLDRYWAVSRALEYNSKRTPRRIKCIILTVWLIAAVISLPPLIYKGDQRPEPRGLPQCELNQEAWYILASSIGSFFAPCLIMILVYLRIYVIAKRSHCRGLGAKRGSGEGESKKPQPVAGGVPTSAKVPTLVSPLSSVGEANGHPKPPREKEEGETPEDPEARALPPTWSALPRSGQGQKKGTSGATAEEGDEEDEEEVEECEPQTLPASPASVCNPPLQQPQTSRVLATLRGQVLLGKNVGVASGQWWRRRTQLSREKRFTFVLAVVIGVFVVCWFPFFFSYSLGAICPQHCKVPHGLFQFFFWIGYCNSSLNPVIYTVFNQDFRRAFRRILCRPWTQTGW
T4 sequence (P22909 whole entry): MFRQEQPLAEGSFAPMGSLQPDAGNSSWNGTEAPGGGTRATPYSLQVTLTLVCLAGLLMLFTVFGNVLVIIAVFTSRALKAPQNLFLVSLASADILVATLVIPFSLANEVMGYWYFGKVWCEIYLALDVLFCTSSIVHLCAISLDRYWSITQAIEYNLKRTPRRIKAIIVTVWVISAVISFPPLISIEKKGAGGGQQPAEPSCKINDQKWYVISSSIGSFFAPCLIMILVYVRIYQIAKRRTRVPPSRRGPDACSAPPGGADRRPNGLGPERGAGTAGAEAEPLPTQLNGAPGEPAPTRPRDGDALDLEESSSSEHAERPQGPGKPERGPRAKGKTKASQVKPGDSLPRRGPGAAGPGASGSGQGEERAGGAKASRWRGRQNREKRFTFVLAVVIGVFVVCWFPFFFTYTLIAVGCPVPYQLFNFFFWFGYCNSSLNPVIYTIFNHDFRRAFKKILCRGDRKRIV

[6] = biological target: T5, Beta-1 adrenergic receptor (Rattus norvegicus, UniProt P18090)
T5 sequence (P18090 whole entry): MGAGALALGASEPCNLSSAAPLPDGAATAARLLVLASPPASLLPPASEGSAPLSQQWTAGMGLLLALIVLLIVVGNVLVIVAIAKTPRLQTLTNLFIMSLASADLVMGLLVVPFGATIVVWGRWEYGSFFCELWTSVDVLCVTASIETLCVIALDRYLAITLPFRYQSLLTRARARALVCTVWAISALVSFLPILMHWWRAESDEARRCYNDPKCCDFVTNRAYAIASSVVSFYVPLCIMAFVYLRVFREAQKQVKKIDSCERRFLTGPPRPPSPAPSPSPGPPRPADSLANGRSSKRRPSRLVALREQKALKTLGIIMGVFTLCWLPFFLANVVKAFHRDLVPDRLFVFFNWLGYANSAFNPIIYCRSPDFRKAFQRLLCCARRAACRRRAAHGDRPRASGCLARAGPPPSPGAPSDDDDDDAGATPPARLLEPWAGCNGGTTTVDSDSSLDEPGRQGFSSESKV
Description: Compound was evaluated for beta adrenergic binding affinity towards Beta-1 adrenergic receptor of rat brain

[7] = biological target: T6, Adrenergic receptor alpha-2 (Homo sapiens) (UniProt P08913+P18825+P18089); settings: Cavia porcellus; Ileum
Description: Intrinsic activity was expressed as the ratio between maximal response elicited by compound and that elicited by full agonist NE towards Alpha-2 adrenergic receptor of isolated guinea pig ileum

[8] = biological target: Beta-1 adrenergic receptor (Cavia porcellus) (UniProt B0FL73)
Beta-1 adrenergic receptor (Cavia porcellus), sequence (B0FL73 1-467): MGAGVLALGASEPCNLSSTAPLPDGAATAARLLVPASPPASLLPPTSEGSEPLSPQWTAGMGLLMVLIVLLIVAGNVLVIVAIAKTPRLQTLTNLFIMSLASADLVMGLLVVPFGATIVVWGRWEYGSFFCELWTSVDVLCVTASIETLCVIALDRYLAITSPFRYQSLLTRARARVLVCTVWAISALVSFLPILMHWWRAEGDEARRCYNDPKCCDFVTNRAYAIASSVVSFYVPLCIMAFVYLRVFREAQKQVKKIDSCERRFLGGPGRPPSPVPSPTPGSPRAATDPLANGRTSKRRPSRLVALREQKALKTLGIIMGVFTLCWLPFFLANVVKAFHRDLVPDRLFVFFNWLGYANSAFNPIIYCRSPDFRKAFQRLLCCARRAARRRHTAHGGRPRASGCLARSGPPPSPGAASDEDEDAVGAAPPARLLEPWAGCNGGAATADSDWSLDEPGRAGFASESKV

[9] = biological target: Beta-2 adrenergic receptor (Cavia porcellus) (UniProt Q8K4Z4)
Beta-2 adrenergic receptor (Cavia porcellus), sequence (Q8K4Z4 whole entry, looked up): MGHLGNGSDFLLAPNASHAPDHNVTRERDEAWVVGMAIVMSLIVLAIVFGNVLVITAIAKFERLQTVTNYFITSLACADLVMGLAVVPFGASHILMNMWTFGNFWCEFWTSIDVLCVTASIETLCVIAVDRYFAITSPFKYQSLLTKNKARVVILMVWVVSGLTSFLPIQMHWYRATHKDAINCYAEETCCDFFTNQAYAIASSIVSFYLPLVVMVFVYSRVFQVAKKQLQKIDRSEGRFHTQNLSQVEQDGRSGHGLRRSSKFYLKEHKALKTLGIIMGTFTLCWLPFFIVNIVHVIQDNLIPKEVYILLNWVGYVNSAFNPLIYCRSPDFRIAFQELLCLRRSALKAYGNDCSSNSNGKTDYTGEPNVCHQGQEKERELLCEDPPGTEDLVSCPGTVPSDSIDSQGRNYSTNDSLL

[10] = biological target: T6, Adrenergic receptor alpha-2 (Homo sapiens); assay: Intrinsic activity was expressed as the ratio between maximal response elicited by compound and that elicited by full agonist NE towards alpha-2 adrenergic receptor of isolated guinea pig ileum; type: functional, tissue-based; settings: Cavia porcellus
[11] = biological target: T6, Adrenergic receptor alpha-2 (Homo sapiens); assay: Compound was evaluated for alpha adrenoceptor agonistic activity towards alpha-2 adrenergic receptor of isolated guinea pig ileum; type: functional, tissue-based; settings: Cavia porcellus, target entry is the homologue from another species
[12] = biological target: T1, Adrenergic receptor alpha-1 (Rattus norvegicus); assay: Intrinsic activity was expressed as the ratio between maximal response elicited by compound and that elicited by full agonist NE towards Alpha-1 adrenergic receptor of isolated rat vas deferens; type: functional, tissue-based
[13] = biological target: T4, Adrenergic receptor alpha-2; assay: Binding affinity towards Alpha-2 adrenergic receptor of rat brain
[14] = biological target: T1, Adrenergic receptor alpha-1 (Rattus norvegicus); assay: (§1) Compound was evaluated for alpha adrenoceptor agonistic activity towards Alpha-1 adrenergic receptor of isolated rat vas deferens; type: functional, tissue-based
[15] = biological target: Beta-1 adrenergic receptor (Cavia porcellus) (UniProt B0FL73); assay: Compound was evaluated for beta adrenoceptor agonistic activity towards Beta-1 adrenergic receptor of isolated guinea pig atria; type: functional
[16] = biological target: T3, Beta-2 adrenergic receptor; assay: Compound was evaluated for beta adrenergic binding affinity towards Beta-2 adrenergic receptor of bovine lung
[17] = biological target: Beta-2 adrenergic receptor (Cavia porcellus) (UniProt Q8K4Z4); assay: Compound was evaluated for beta adrenoceptor agonistic activity towards Beta-2 adrenergic receptor of isolated guinea pig tracheal strip; type: functional
[18] = biological target: Beta-1 adrenergic receptor (Cavia porcellus) (UniProt B0FL73); assay: Intrinsic activity was expressed as the ratio between maximal response elicited by compound and that elicited by full agonist ISO towards beta-1 receptor of isolated guinea pig atria; type: functional
[19] = biological target: T5, Beta-1 adrenergic receptor; assay: Compound was evaluated for beta adrenergic binding affinity towards beta-1 receptor of rat brain
[20] = biological target: Beta-1 adrenergic receptor (Cavia porcellus) (UniProt B0FL73); assay: Compound was evaluated for beta adrenoceptor agonistic activity towards beta 1 receptor of isolated guinea pig atria; type: functional
[21] = biological target: Beta-1 adrenergic receptor (Cavia porcellus) (UniProt B0FL73); assay: Intrinsic activity was expressed as the ratio between maximal response elicited by compound and that elicited by full agonist ISO towards beta 1 receptor of isolated guinea pig atria; type: functional
[22] = biological target: Beta-1 adrenergic receptor (Cavia porcellus) (UniProt B0FL73); assay: Compound was evaluated for beta adrenoceptor agonistic activity towards Beta-1 adrenergic receptor of isolated guinea pig atria (exp 1); type: functional
[23] = biological target: Beta-1 adrenergic receptor (Cavia porcellus) (UniProt B0FL73); assay: Compound was evaluated for beta adrenoceptor agonistic activity towards beta 1 receptor of isolated guinea pig atria (exp 2); type: functional
[24] = biological target: Beta-2 adrenergic receptor (Cavia porcellus) (UniProt Q8K4Z4); assay: Intrinsic activity was expressed as the ratio between maximal response elicited by compound and that elicited by full agonist ISO towards beta 2 receptor of isolated guinea pig tracheal strip (exp 1); type: functional
[25] = biological target: Beta-2 adrenergic receptor (Cavia porcellus) (UniProt Q8K4Z4); assay: Intrinsic activity was expressed as the ratio between maximal response elicited by compound and that elicited by full agonist ISO towards beta 2 receptor of isolated guinea pig tracheal strip (exp 2); type: functional
[26] = biological target: Beta-1 adrenergic receptor (Cavia porcellus) (UniProt B0FL73); assay: Intrinsic activity was expressed as the ratio between maximal response elicited by compound and that elicited by full agonist ISO towards Beta-1 adrenergic receptor of isolated guinea pig atria (exp 1); type: functional
[27] = biological target: Beta-1 adrenergic receptor (Cavia porcellus) (UniProt B0FL73); assay: Compound was evaluated for beta adrenergic […]
[28] = biological target: Beta-2 adrenergic receptor (Cavia porcellus) (UniProt Q8K4Z4); assay: Intrinsic activity was expressed as the ratio between maximal response elicited by compound and that elicited by full agonist ISO towards Beta-2 adrenergic receptor of isolated guinea pig tracheal strip (exp 1); type: functional
[29] = biological target: Beta-2 adrenergic receptor (Cavia porcellus) (UniProt Q8K4Z4); remark: listed apart in the source
Description: Compound was evaluated for beta adrenoceptor agonistic activity towards Beta-2 adrenergic receptor of isolated guinea pig tracheal strip (exp 2)

[30] = biological target: T1, Adrenergic receptor alpha-1 (Rattus norvegicus); assay: Compound was evaluated for alpha adrenoceptor agonistic activity towards alpha 1 receptor of isolated rat vas deferens; type: functional, tissue-based
[31] = biological target: T1, Adrenergic receptor alpha-1 (Rattus norvegicus); assay: Compound was evaluated for alpha adrenoceptor agonistic activity towards Alpha-1 adrenergic receptor of isolated rabbit aortic strips (exp 2); type: functional
[32] = biological target: Adrenergic receptor alpha-1 (Homo sapiens) (UniProt P35348+P25100+P35368); assay: as §1; type: functional, tissue-based; settings: Oryctolagus cuniculus
[33] = biological target: Beta-2 adrenergic receptor (Cavia porcellus) (UniProt Q8K4Z4); assay: Compound was evaluated for beta adrenoceptor agonistic activity towards beta 2 receptor of isolated guinea pig tracheal strip (exp 1 2); type: functional
[34] = biological target: Beta-1 adrenergic receptor (Cavia porcellus) (UniProt B0FL73); assay: Compound was evaluated for beta adrenoceptor agonistic activity towards Beta-1 adrenergic receptor of isolated guinea pig atria (exp 2); type: functional
[35] = biological target: Beta-1 adrenergic receptor (Cavia porcellus) (UniProt B0FL73); assay: Compound was evaluated for beta adrenoceptor agonistic activity towards beta 1 receptor of isolated guinea pig atria (exp 1); type: functional
[36] = biological target: Beta-2 adrenergic receptor (Cavia porcellus) (UniProt Q8K4Z4); assay: Compound was evaluated for beta adrenoceptor agonistic activity towards Beta-2 adrenergic receptor of isolated guinea pig tracheal strip (exp 1 2); type: functional

SMILES	pD2 [1]	Ki [2]	Intrinsic activity [3]	Ki [4]	Ki [5]	Ki [6]	pD2 [7]	pD2 [9]	Intrinsic activity [10]	pD2 [11]	Ki [13]	pD2 [15]	Ki [16]	pD2 [17]	Ki [19]	Intrinsic activity [21]	other results
Oc1ccc(C2(O)CCCNC2)cc1O (stereo not given)	4.76	15 µM	0.95	> 100 µM	0.5 µM	> 100 µM	5.56	4.44									pD2 [8]: 3.81
N[C@@H]1CCc2cc(O)c(O)cc2[C@H]1O		0.3 µM				> 100 µM			1.42	6.63	0.09 µM	4.57	71 µM	5.36			Intrinsic activity [12]: 0.5; pD2 [14]: 4.6; Intrinsic activity [18]: 0.81
Oc1ccc(C2CNCCO2)cc1O (stereo not given)	4.88	7.4 µM	0.91	9.2 µM	0.026 µM		7.34	4.76							15 µM	0.91	pD2 [20]: 5.31
CC(C)N1CCOC(c2ccc(O)c(O)c2)C1 (stereo not given)		6.7 µM		36 µM	5.1 µM		5								48 µM		Intrinsic activity [22]: 0.77; pD2 [23]: 5.74; Intrinsic activity [24]: 0.87; Intrinsic activity [25]: 0.93; Intrinsic activity [26]: 0.88; pD2 [27]: 4.62; pD2 [28]: 5.91; pD2 [29]: 6.34
N[C@@H]1CCc2c(ccc(O)c2O)[C@H]1O		> 100 µM		0.12 µM	2.9 µM	8 µM	5.32										pD2 [30]: 3.7; Intrinsic activity [31]: 0.87; pD2 [32]: < 3.5; pD2 [22]: 6.74; pD2 [33]: 7.49; Intrinsic activity [34]: 1; pD2 [35]: 4.96; pD2 [36]: 7.78
CC(C)N1CCCC(O)(c2ccc(O)c(O)c2)C1 (stereo not given)		36 µM				60 µM			0.89	4.57	4.8 µM	3.5	92 µM	4.64		0.16	
